Activity calls are given as the source filed them. How the calls were made is not given here.
Tested on: CCRIS mutagenicity, Ames/micronucleus/aberration tests
Assay: CCRIS mutagenicity studies
[1] = Test System: AMES SALMONELLA TYPHIMURIUM, Strain/Indicator: TA98, Metabolic Activation: HAMSTER, LIVER, S-9, AROCLOR 1254 (10%), Method: PREINCUBATION
[2] = Test System: AMES SALMONELLA TYPHIMURIUM, Strain/Indicator: TA98, Metabolic Activation: RAT, LIVER, S-9, AROCLOR 1254 (10%), Method: PREINCUBATION
[3] = Test System: AMES SALMONELLA TYPHIMURIUM, Strain/Indicator: TA98, Metabolic Activation: RAT, LIVER, S-9, AROCLOR 1254, Method: STANDARD PLATE
[4] = Test System: AMES SALMONELLA TYPHIMURIUM, Strain/Indicator: TA100, Metabolic Activation: HAMSTER, LIVER, S-9, AROCLOR 1254 (10%), Method: PREINCUBATION
[5] = Test System: AMES SALMONELLA TYPHIMURIUM, Strain/Indicator: TA100, Metabolic Activation: NONE, Method: PREINCUBATION
[6] = Test System: AMES SALMONELLA TYPHIMURIUM, Strain/Indicator: TA100, Metabolic Activation: NONE, Method: STANDARD PLATE
[7] = Test System: AMES SALMONELLA TYPHIMURIUM, Strain/Indicator: TA100, Metabolic Activation: RAT, LIVER, S-9, AROCLOR 1254 (10%), Method: PREINCUBATION
[8] = Test System: AMES SALMONELLA TYPHIMURIUM, Strain/Indicator: TA100, Metabolic Activation: RAT, LIVER, S-9, AROCLOR 1254, Method: STANDARD PLATE
[9] = Test System: AMES SALMONELLA TYPHIMURIUM, Strain/Indicator: TA1535, Metabolic Activation: HAMSTER, LIVER, S-9, AROCLOR 1254 (10%), Method: PREINCUBATION
[10] = Test System: AMES SALMONELLA TYPHIMURIUM, Strain/Indicator: TA1535, Metabolic Activation: NONE, Method: PREINCUBATION
[11] = Test System: AMES SALMONELLA TYPHIMURIUM, Strain/Indicator: TA1535, Metabolic Activation: RAT, LIVER, S-9, AROCLOR 1254 (10%), Method: PREINCUBATION
[12] = Test System: AMES SALMONELLA TYPHIMURIUM, Strain/Indicator: TA1537, Metabolic Activation: HAMSTER, LIVER, S-9, AROCLOR 1254 (10%), Method: PREINCUBATION
[13] = Test System: AMES SALMONELLA TYPHIMURIUM, Strain/Indicator: TA1537, Metabolic Activation: NONE, Method: PREINCUBATION
[14] = Test System: AMES SALMONELLA TYPHIMURIUM, Strain/Indicator: TA1537, Metabolic Activation: RAT, LIVER, S-9, AROCLOR 1254 (10%), Method: PREINCUBATION

## O=C(Cl)c1ccc([N+](=O)[O-])cc1
End Point: In vitro chromosomal aberrations, Test System: Chinese hamster lung (CHL/IU) cells, Metabolic Activation: None
  mutagenic call: inactive; negative. precipitation observed in culture medium at all doses tested.
End Point: In vitro chromosomal aberrations, Test System: Chinese hamster lung (CHL/IU) cells, Metabolic Activation: Rat, Liver, S9, Phenobarbital and 5,6-benzoflavone
  mutagenic call: inactive; negative. precipitation observed in culture medium at all doses tested.
[1]
  mutagenic call: active; positive
Test System: AMES SALMONELLA TYPHIMURIUM, Strain/Indicator: TA98, Metabolic Activation: HAMSTER, LIVER, S-9, AROCLOR 1254, Method: STANDARD PLATE
  mutagenic call: inactive; negative
Test System: AMES SALMONELLA TYPHIMURIUM, Strain/Indicator: TA98, Metabolic Activation: NONE, Method: STANDARD PLATE
  mutagenic call: inactive; negative
[2]
  mutagenic call: active; positive
[3]
  mutagenic call: inactive; negative
Test System: AMES SALMONELLA TYPHIMURIUM, Strain/Indicator: TA98, Metabolic Activation: RAT, LIVER, S-9, KANECHLOR 500, Method: PREINCUBATION
  mutagenic call: inactive; negative
[4]
  mutagenic call: active; positive
Test System: AMES SALMONELLA TYPHIMURIUM, Strain/Indicator: TA100, Metabolic Activation: HAMSTER, LIVER, S-9, AROCLOR 1254, Method: STANDARD PLATE
  mutagenic call: inactive; negative
[5]
  mutagenic call: active; positive
[6]
  mutagenic call: inactive; negative
[7]
  mutagenic call: active; positive
[8]
  mutagenic call: inactive; negative
Test System: AMES SALMONELLA TYPHIMURIUM, Strain/Indicator: TA100, Metabolic Activation: RAT, LIVER, S-9, KANECHLOR 500, Method: PREINCUBATION
  mutagenic call: active; positive
[9]
  mutagenic call: active; positive
Test System: AMES SALMONELLA TYPHIMURIUM, Strain/Indicator: TA1535, Metabolic Activation: HAMSTER, LIVER, S-9, AROCLOR 1254, Method: STANDARD PLATE
  mutagenic call: inactive; negative
[10]
  mutagenic call: active; positive
Test System: AMES SALMONELLA TYPHIMURIUM, Strain/Indicator: TA1535, Metabolic Activation: NONE, Method: STANDARD PLATE
  mutagenic call: inactive; negative
[11]
  mutagenic call: active; positive
Test System: AMES SALMONELLA TYPHIMURIUM, Strain/Indicator: TA1535, Metabolic Activation: RAT, LIVER, S-9, AROCLOR 1254, Method: STANDARD PLATE
  mutagenic call: inactive; negative
[12]
  mutagenic call: active; positive
Test System: AMES SALMONELLA TYPHIMURIUM, Strain/Indicator: TA1537, Metabolic Activation: HAMSTER, LIVER, S-9, AROCLOR 1254, Method: STANDARD PLATE
  mutagenic call: inactive; negative
[13]
  mutagenic call: active; positive
Test System: AMES SALMONELLA TYPHIMURIUM, Strain/Indicator: TA1537, Metabolic Activation: NONE, Method: STANDARD PLATE
  mutagenic call: inactive; negative
[14]
  mutagenic call: active; positive
Test System: AMES SALMONELLA TYPHIMURIUM, Strain/Indicator: TA1537, Metabolic Activation: RAT, LIVER, S-9, AROCLOR 1254, Method: STANDARD PLATE
  mutagenic call: inactive; negative
Test System: AMES SALMONELLA TYPHIMURIUM, Strain/Indicator: TA1538, Metabolic Activation: HAMSTER, LIVER, S-9, AROCLOR 1254, Method: STANDARD PLATE
  mutagenic call: inactive; negative
Test System: AMES SALMONELLA TYPHIMURIUM, Strain/Indicator: TA1538, Metabolic Activation: NONE, Method: STANDARD PLATE
  mutagenic call: inactive; negative
Test System: AMES SALMONELLA TYPHIMURIUM, Strain/Indicator: TA1538, Metabolic Activation: RAT, LIVER, S-9, AROCLOR 1254, Method: STANDARD PLATE
  mutagenic call: inactive; negative
Test System: Ames Salmonella typhimurium, Strain/Indicator: TA100, Metabolic Activation: Rat, Liver, S9, Sodium phenobarbital and 5,6-benzoflavone (10%), Method: Preincubation
  mutagenic call: active; positive
Test System: Ames Salmonella typhimurium, Strain/Indicator: TA1535, Metabolic Activation: None, Method: Preincubation
  mutagenic call: active; positive
Test System: Ames Salmonella typhimurium, Strain/Indicator: TA1535, Metabolic Activation: Rat, Liver, S9, Sodium phenobarbital and 5,6-benzoflavone (10%), Method: Preincubation
  mutagenic call: active; positive
Test System: Ames Salmonella typhimurium, Strain/Indicator: TA1537, Metabolic Activation: None, Method: Preincubation
  mutagenic call: inactive; negative
Test System: Ames Salmonella typhimurium, Strain/Indicator: TA1537, Metabolic Activation: Rat, Liver, S9, Sodium phenobarbital and 5,6-benzoflavone (10%), Method: Preincubation
  mutagenic call: inactive; negative
Test System: E. coli, Strain/Indicator: WP2uvrA/pKM101, Metabolic Activation: None, Method: Preincubation
  mutagenic call: inactive; negative
Test System: E. coli, Strain/Indicator: WP2uvrA/pKM101, Metabolic Activation: Rat, Liver, S9, Sodium phenobarbital and 5,6-benzoflavone (10%), Method: Preincubation
  mutagenic call: inactive; negative
Test System: MOUSE LYMPHOMA, Strain/Indicator: L5178Y (TK+/TK-), Metabolic Activation: NONE, Method: SUSPENSION/PLATE
  mutagenic call: inactive; negative. reevaluation of results: negative
Test System: MOUSE LYMPHOMA, Strain/Indicator: L5178Y (TK+/TK-), Metabolic Activation: RAT, LIVER, S-9, AROCLOR 1254, Method: SUSPENSION/PLATE
  mutagenic call: inactive; negative. reevaluation of results: negative

## Nc1ccc(/C=C/c2ccccc2)cc1
Test System: AMES SALMONELLA TYPHIMURIUM, Strain/Indicator: TA98(1,8-DNP6), Metabolic Activation: NONE, Method: STANDARD PLATE
  mutagenic call: inactive; negative
Test System: AMES SALMONELLA TYPHIMURIUM, Strain/Indicator: TA98(1,8-DNP6), Metabolic Activation: S-9, Method: STANDARD PLATE
  mutagenic call: active; positive
Test System: AMES SALMONELLA TYPHIMURIUM, Strain/Indicator: TA98, Metabolic Activation: RAT LIVER S9, AROCLOR, Method: STANDARD PLATE
  mutagenic call: active; positive
[3]
  mutagenic call: active; positive
Test System: AMES SALMONELLA TYPHIMURIUM, Strain/Indicator: TA98, Metabolic Activation: S-9, Method: STANDARD PLATE
  mutagenic call: active; positive
[6]
  mutagenic call: inactive; negative
Test System: AMES SALMONELLA TYPHIMURIUM, Strain/Indicator: TA100, Metabolic Activation: RAT, LIVER, S9, AROCLOR, Method: STANDARD PLATE
  mutagenic call: active; positive
[8]
  mutagenic call: active; positive
Test System: AMES SALMONELLA TYPHIMURIUM, Strain/Indicator: TA100, Metabolic Activation: RAT, LIVER, S-9, PHENOBARBITAL, Method: STANDARD PLATE
  mutagenic call: active; positive
Test System: AMES SALMONELLA TYPHIMURIUM, Strain/Indicator: TA100, Metabolic Activation: S-9, Method: STANDARD PLATE
  mutagenic call: active; positive
Test System: AMES SALMONELLA TYPHIMURIUM, Strain/Indicator: TA1538, Metabolic Activation: RAT, LIVER, S-9, PHENOBARBITAL, Method: STANDARD PLATE
  mutagenic call: active; positive

## O=BOO
Test System: AMES SALMONELLA TYPHIMURIUM, Strain/Indicator: TA102, Metabolic Activation: NONE, Method: STANDARD PLATE
  mutagenic call: active; positive
Test System: E. COLI, Strain/Indicator: WP2 (PKM101), Metabolic Activation: NONE, Method: STANDARD PLATE
  mutagenic call: active; positive
Test System: E. COLI, Strain/Indicator: WP2 UVRA (PKM101), Metabolic Activation: NONE, Method: STANDARD PLATE
  mutagenic call: active; positive

## C=CCOC(=O)c1ccccc1N
[1]
  mutagenic call: inactive; negative
Test System: AMES SALMONELLA TYPHIMURIUM, Strain/Indicator: TA98, Metabolic Activation: NONE, Method: PREINCUBATION
  mutagenic call: inactive; negative
[2]
  mutagenic call: inactive; negative
[4]
  mutagenic call: inactive; negative
[5]
  mutagenic call: inactive; negative
[7]
  mutagenic call: inactive; negative
[9]
  mutagenic call: inactive; negative
[10]
  mutagenic call: inactive; negative
[11]
  mutagenic call: inactive; negative
[12]
  mutagenic call: inactive; negative
[13]
  mutagenic call: inactive; negative
[14]
  mutagenic call: inactive; negative
